Measurements: patent US4434159A, “Pharmaceutical composition for intrarectal administration, and suppository prepared therefrom” (Teijin Limited, priority 1980, dated 1984)

Test system: blood glucose level
Experiment: Decrease in blood glucose level after administration of insulin suppositories to rabbits
Assay type: in vivo
Settings: 0.32 u/kg intramuscularly administered
Protocol: 500 mg of the dispersion was filled into a gelatin capsule for suppositories to form a gelatin capsule suppository. One capsule contained 9.6 units of insulin. In the same manner as above, insulin suppositories were prepared using the other absorption aids shown in Table 4 instead of ascorbic acid. The content (units) of insulin and the amounts of the absorption aids and the base (fractionated coconut oil) were as shown in Table 4. […] Each time, 0.5 ml of the blood was withdrawn from the ear vein. The glucose level of the blood was measured by the glucose oxidase method. Table 4 summarizes the decrease (%) of the blood glucose level from that before the administration.

Insulin: porcine insulin, intramuscularly administered as comparison
Decrease (%) in blood glucose level from that before administration (30 minutes): 13.7%
Decrease (%) in blood glucose level from that before administration (1 hour): 32.6%
Decrease (%) in blood glucose level from that before administration (2 hours): 36.2%
Decrease (%) in blood glucose level from that before administration (3 hours): 15.2%
